Assay results as given in PMC4773869, “Influence of plasma-activated compounds on melanogenesis and tyrosinase activity” (Scientific Reports, 2016).
Where two headings read alike, the source gives them in different places.

Experiments:
mushroom tyrosinase [1] = biological target: T1, mushroom tyrosinase (Agaricus bisporus, UniProt C7FF04); assay: Mushroom tyrosinase inhibition assay (L-DOPA, dopachrome at 492 nm); assay type: biochemical; design: purchased Sigma Chemical Co. USA; conditions: mean ± SD, read-out: Tyrosinase inhibitory activity IC50 (converted)
Description: To determine the action of ED and PAED, we checked the mushroom tyrosinase inhibitory activity in a cell-free environment. […] Moreover, after plasma treatment for different time intervals, we observed that inhibition activity of 4a, 4b, 4d and 6a was improved more as compared to without treatment. […] However, we observed the highest relative improvement in IC50 value of compound 4b among all ED compounds at 10 min plasma treatment. […] Therefore, we used the 4b and 6a compounds for further investigations, based on the decrease in IC50 value to a global minimum of the experiment after plasma treatment.
The mushroom tyrosinase was used for in vitro bioassays as described previously with some modifications. Briefly, 140 μl of phosphate buffer (20 mM, pH 6.8), 20 μl of mushroom tyrosinase (30 U/ml), and 20 μl of the inhibitor solution were placed in the wells of a 96-well plate. After pre-incubation for 10 min at room temperature, 20 μl of L-DOPA (3,4-dihydroxyphenylalanine) (0.85 mM) was added and the plate was further incubated at 25 °C for 20 min. Subsequently the absorbance of dopachrome was measured at 492 nm using a micro plate reader (OPTI Max, Tunable). Kojic acid was used as a reference inhibitor. The extent of inhibition by the test compounds was expressed as the […] necessary to achieve 50% inhibition (IC50). Each concentration was analyzed in three independent experiments run in triplicate. The IC50 values were determined by the data analysis and graphing software, Origin.
Target sequence in this assay (C7FF04 1-392): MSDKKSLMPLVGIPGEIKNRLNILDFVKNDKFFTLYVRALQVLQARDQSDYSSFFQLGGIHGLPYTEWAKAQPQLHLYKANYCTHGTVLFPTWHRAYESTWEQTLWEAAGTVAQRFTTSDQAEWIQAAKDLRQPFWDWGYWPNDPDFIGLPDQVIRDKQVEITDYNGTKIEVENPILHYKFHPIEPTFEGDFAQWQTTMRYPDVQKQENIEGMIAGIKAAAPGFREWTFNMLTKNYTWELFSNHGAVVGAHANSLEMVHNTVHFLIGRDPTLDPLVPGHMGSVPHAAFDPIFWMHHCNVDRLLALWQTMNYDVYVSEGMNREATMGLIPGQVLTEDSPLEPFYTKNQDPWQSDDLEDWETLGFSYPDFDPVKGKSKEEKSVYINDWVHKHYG

mushroom tyrosinase [2] = biological target: T1, mushroom tyrosinase; assay: Kinetic analysis of the inhibition of mushroom tyrosinase (Lineweaver-Burk and Dixon plots); assay type: biochemical; conditions: Lineweaver-Burk plot; substrate L-DOPA; as-synthesized compound
Description: Latter, we studied the kinetic behavior of mushroom tyrosinase during the oxidation of L-DOPA with the selective ED compounds (4b and 6a). In the present investigation, the oxidation reaction of L-DOPA by mushroom tyrosinase follows the Michaelis-Menten kinetics. The inhibitory mechanism of both of the compounds was determined by using Lineweaver-Burk plot (double reciprocal plot) as well as a Dixon plot at various concentrations of substrate L-DOPA (0.0, 0.125, 0.25, 0.5, 1.0 and 2.0 mM), as shown in Fig. 4. The double-reciprocal plot of enzyme activity in the presence of compound 4b with concentration 0.0, 18.0, 36.5, 73, 146 μM and compound 6a with concentration 0.0, 6.7, 13.5, 27 μM are shown in Fig. 4(a,b), respectively. […] The Dixon plot was determined by 1/V versus inhibitor concentrations [I] at various concentrations of substrate in mM. […] Further, to determine the action of these eugenol derivatives on the structure of tyrosinase enzyme, we performed CD analysis and molecular docking studies. A series of experiments were performed to determine the inhibition kinetics using the following method. […] The formation of DOPAchrome was continuously monitored at 475 nm for 5 min at a 30 sec intervals in the microplate reader after the addition of the enzyme.
Target sequence in this assay (C7FF04 2-392): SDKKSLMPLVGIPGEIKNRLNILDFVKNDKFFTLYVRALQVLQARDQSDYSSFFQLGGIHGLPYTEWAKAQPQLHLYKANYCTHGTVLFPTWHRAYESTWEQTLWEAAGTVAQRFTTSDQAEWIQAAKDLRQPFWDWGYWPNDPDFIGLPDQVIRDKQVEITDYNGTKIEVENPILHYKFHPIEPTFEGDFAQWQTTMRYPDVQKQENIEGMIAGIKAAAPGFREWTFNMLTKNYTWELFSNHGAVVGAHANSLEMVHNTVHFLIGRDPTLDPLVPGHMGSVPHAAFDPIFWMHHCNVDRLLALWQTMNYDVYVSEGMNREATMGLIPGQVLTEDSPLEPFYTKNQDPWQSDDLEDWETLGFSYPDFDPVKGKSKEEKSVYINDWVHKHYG

[3] = Con: as-synthesized, before plasma treatment, cell-free
[4] = compound after 3 min N2 APPJ plasma treatment
[5] = compound after 5 min N2 APPJ plasma treatment
[6] = compound after 10 min N2 APPJ plasma treatment

C=CCc1ccc(OC(=O)COC(=O)c2ccc(O)cc2)c(OC)c1 [4b, 2-[2-methoxy-4-(prop-2-en-1-yl)phenoxy]-2-oxoethyl 4-hydroxybenzoate]
IC50 (mushroom tyrosinase [1]; [3]): 84.7 µM | IC50 (mushroom tyrosinase [1]; [4]): 70.1 µM | IC50 (mushroom tyrosinase [1]; [5]): 67.2 µM | IC50 (mushroom tyrosinase [1]; [6]): 40.9 µM | type of inhibition (mushroom tyrosinase [2]): competitive inhibitor

C=CCc1ccc(OC(=O)COC(=O)/C=C/c2ccc(O)cc2)c(OC)c1 [6a, 2-[2-methoxy-4-(prop-2-en-1-yl)phenoxy]-2-oxoethyl(2E)-3-(4-hydroxyphenyl)prop-2-enoate]
IC50 (mushroom tyrosinase [1]; [3]): 13.6 µM | IC50 (mushroom tyrosinase [1]; [4]): 13.6 µM | IC50 (mushroom tyrosinase [1]; [5]): 13.6 µM | IC50 (mushroom tyrosinase [1]; [6]): 8.14 µM | type of inhibition (mushroom tyrosinase [2]): uncompetitive inhibitor
